One molecule from PMC9316313, “Biochemical Properties of Atranorin-Induced Behavioral and Systematic Changes of Laboratory Rats” (Life, 2022) can be followed below.

The target of the assay is T1, human serum albumin (HSA) (Homo sapiens, UniProt P02768).
T1 construct: gene ALB; Albumin from human serum (A1887, Sigma Aldrich)
Description: intrinsic fluorescence quenching (Stern-Volmer, binding constant KB), synchronous and 3D fluorescence. The settings on record: read-out: intrinsic fluorescence quenching (Stern-Volmer, binding constant KB), synchronou (converted).

The structures appear in SMILES notation.

T1 sequence (P02768 25-609): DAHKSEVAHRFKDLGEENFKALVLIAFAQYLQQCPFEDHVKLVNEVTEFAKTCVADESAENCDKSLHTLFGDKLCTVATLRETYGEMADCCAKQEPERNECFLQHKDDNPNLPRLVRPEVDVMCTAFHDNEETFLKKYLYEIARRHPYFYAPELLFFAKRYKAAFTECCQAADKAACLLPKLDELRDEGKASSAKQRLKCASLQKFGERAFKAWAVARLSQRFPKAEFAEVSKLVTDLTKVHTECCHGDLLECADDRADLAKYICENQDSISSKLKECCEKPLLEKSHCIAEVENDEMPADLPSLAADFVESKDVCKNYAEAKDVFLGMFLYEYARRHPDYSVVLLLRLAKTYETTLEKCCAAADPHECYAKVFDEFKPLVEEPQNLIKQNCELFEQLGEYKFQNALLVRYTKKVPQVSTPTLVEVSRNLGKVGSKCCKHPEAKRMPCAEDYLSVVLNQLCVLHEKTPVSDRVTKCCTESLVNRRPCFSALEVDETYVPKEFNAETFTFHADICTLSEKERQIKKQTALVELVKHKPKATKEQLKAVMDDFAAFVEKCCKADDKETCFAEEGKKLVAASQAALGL

Turning to `COC(=O)c1c(C)cc(OC(=O)c2c(C)cc(O)c(C=O)c2O)c(C)c1O` [ATR, Atranorin], the Kd is 235 nM.
